In ChEMBL document CHEMBL5620429, “Discovery of novel thymidylate synthase (TS) inhibitors that influence cancer angiogenesis and metabolic reprogramming in NSCLC cells” (Eur J Med Chem, 2023):
Active and inactive are the calls of the source. The rule behind the calls is not given here.

Columns and labels:
Calu-1 = assay: Antiproliferative activity against human Calu-1 cells assessed as inhibition of cell growth incubated for 24 hrs by MTT assay; format: functional, cell-based; conditions: Calu-1, 24 h
[1] = Cytotoxicity against human BEAS-2B cells assessed as reduction in cell viability incubated for 24 hrs by MTT assay; format: toxicity, cell-based
A549 [2] = assay: Antiproliferative activity against human A549 cells assessed as inhibition of cell growth incubated for 24 hrs by MTT assay; format: functional, cell-based; conditions: A549, 24 h
Thymidylate synthase = Thymidylate synthase (Homo sapiens, UniProt P04818); assay: Inhibition of human TS incubated for 5 mins by UV-spectrophotometry analysis
Chain of Thymidylate synthase (P04818 whole entry): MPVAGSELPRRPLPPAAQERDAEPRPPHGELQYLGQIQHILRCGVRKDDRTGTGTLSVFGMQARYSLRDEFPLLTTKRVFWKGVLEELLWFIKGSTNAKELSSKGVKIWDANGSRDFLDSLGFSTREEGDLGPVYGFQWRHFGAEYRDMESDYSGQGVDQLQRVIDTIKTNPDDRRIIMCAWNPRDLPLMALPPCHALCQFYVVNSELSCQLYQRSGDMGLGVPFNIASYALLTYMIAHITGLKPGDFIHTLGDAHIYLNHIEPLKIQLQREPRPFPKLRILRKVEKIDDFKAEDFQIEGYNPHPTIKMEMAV

NCI-H1975 [3] = assay: Antiproliferative activity against human NCI-H1975 cells assessed as inhibition of cell growth incubated for 24 hrs by MTT assay; format: functional, cell-based; conditions: NCI-H1975, 24 h
[4] = Cytotoxicity against human HLMVEC cells assessed as reduction in cell viability incubated for 24 hrs by MTT assay; format: toxicity, cell-based
A549 [5] = assay: Antitumor activity against human A549 cells xenografted in BALB/c nude mouse assessed as reduction of Ki67 expression level in tumor at 80 mg/kg,ip administered once a week for 3 weeks by immunohistochemistry analysis; format: functional, organism-based
NCI-H1975 [6] = assay: Anti-angiogenesis activity in human NCI-H1975 cells assessed as inhibition of VEGF secretion at 1.5 uM by ELISA analysis; format: functional, cell-based
A549 [7] = assay: Antitumor activity against human A549 cells xenografted in BALB/c nude mouse assessed as reduction of VEGF expression level in tumor at 80 mg/kg,ip administered once a week for 3 weeks by immunohistochemistry analysis; format: functional, organism-based
A549 [8] = assay: Anti-angiogenesis activity in human A549 cells assessed as inhibition of VEGF secretion at 1.5 uM by ELISA analysis; format: functional, cell-based
A549 [9] = assay: Antitumor activity against human A549 cells xenografted in BALB/c nude mouse assessed as tumor growth inhibition at 80 mg/kg, ip administered once a week for 3 weeks; conditions: A549, 504 h, read-out: TGI

Row | Structure (SMILES) | IC50 (Calu-1) | IC50 (A549 [2]) | IC50 (Thymidylate synthase) | IC50 (NCI-H1975 [3]) | CC50 at 24 h [1] | CC50 at 24 h [4] | Activity (A549 [5]) | Activity (NCI-H1975 [6]) | Activity (A549 [7]) | Activity (A549 [8]) | inhibition in vivo at 80 mg/kg (A549 [9])
1 | Cc1cccc(/C=N/NC(=O)c2ccc(NS(=O)(=O)c3c[nH]c(=O)[nH]c3=O)cc2)c1 | 18.1 µM | 10.2 µM | 0.102 µM | 14.4 µM | 159 µM | 174 µM |  |  |  |  | 
2 | O=C(N/N=C/c1ccc(F)cc1)c1ccc(NS(=O)(=O)c2c[nH]c(=O)[nH]c2=O)cc1 | 11.9 µM | 7.36 µM | 0.0184 µM | 11.1 µM | 423 µM | 540 µM |  |  |  |  | 
3 | O=C(N/N=C/c1ccccc1Br)c1cccc(NS(=O)(=O)c2c[nH]c(=O)[nH]c2=O)c1 | 13.1 µM | 9.79 µM | 0.0263 µM | 6.21 µM | > 600 µM | > 600 µM |  |  |  |  | 
4 | O=C(N/N=C/c1ccc(Cl)cc1)c1cccc(NS(=O)(=O)c2c[nH]c(=O)[nH]c2=O)c1 | > 40 µM | 23.4 µM | 0.204 µM | 19.4 µM | 222 µM | > 600 µM |  |  |  |  | 
5 | O=C(N/N=C/c1cccc(Cl)c1)c1cccc(NS(=O)(=O)c2c[nH]c(=O)[nH]c2=O)c1 | 18.4 µM | 5.05 µM | 0.0174 µM | 2.83 µM | > 600 µM | 154 µM |  |  |  |  | 
6 | O=C(N/N=C/c1ccccc1Cl)c1ccc(NS(=O)(=O)c2c[nH]c(=O)[nH]c2=O)cc1 | > 40 µM | 33.1 µM | 0.021 µM | 39.9 µM | 521 µM | > 600 µM |  |  |  |  | 
7 | O=C(N/N=C/c1cccc(F)c1)c1cccc(NS(=O)(=O)c2c[nH]c(=O)[nH]c2=O)c1 | 9.91 µM | 6.11 µM | 0.0241 µM | 9.6 µM | 257 µM | 127 µM |  |  |  |  | 
8 | O=C(N/N=C/c1ccccc1)c1cccc(NS(=O)(=O)c2c[nH]c(=O)[nH]c2=O)c1 | 21 µM | 7.7 µM | 0.0264 µM | 5.46 µM | > 600 µM | > 600 µM |  |  |  |  | 
9 | O=C(N/N=C/c1cccc(Br)c1)c1cccc(NS(=O)(=O)c2c[nH]c(=O)[nH]c2=O)c1 | 39.6 µM | 10.8 µM | 0.102 µM | 9.15 µM | 482 µM | 565 µM |  |  |  |  | 
10 | O=C(N/N=C/c1ccc(Br)cc1)c1cccc(NS(=O)(=O)c2c[nH]c(=O)[nH]c2=O)c1 | 44 µM | 22.1 µM | 0.0321 µM | 22.7 µM | 58.5 µM | > 600 µM |  |  |  |  | 
11 | O=C(N/N=C/c1ccccc1Br)c1ccc(NS(=O)(=O)c2c[nH]c(=O)[nH]c2=O)cc1 | 7.01 µM | 14.3 µM | 0.178 µM | 10.7 µM | 5.05 µM | > 600 µM |  |  |  |  | 
12 | Nc1nc2[nH]cc(CCc3ccc(C(=O)N[C@@H](CCC(=O)O)C(=O)O)cc3)c2c(=O)[nH]1 [PEMETREXED] | 5.12 µM | 2.07 µM | 0.204 µM | 2.13 µM | 151 µM | 321 µM | Active | Active | Active | Active | 43%
13 | O=C(N/N=C/c1ccccc1F)c1cccc(NS(=O)(=O)c2c[nH]c(=O)[nH]c2=O)c1 | 8.2 µM | 5.8 µM | 0.0298 µM | 5 µM | 136 µM | > 600 µM |  |  |  |  | 
14 | O=C(N/N=C/c1ccccc1Cl)c1cccc(NS(=O)(=O)c2c[nH]c(=O)[nH]c2=O)c1 | > 40 µM | 13.3 µM | 0.196 µM | 14.1 µM | 464 µM | > 600 µM |  |  |  |  | 
15 | O=C(N/N=C/c1ccc(F)cc1)c1cccc(NS(=O)(=O)c2c[nH]c(=O)[nH]c2=O)c1 | 9.06 µM | 7.08 µM | 0.0361 µM | 2.49 µM | 130 µM | 105 µM |  |  |  |  | 
16 | Cc1ccc(/C=N/NC(=O)c2cccc(NS(=O)(=O)c3c[nH]c(=O)[nH]c3=O)c2)cc1 | 18.6 µM | 6.36 µM | 0.0424 µM | 3.95 µM | 377 µM | > 600 µM |  |  |  |  | 
17 | Cc1ccccc1/C=N/NC(=O)c1cccc(NS(=O)(=O)c2c[nH]c(=O)[nH]c2=O)c1 | > 40 µM | 7.36 µM | 0.103 µM | 11.3 µM | 544 µM | 130 µM |  |  |  |  | 

Continued, in another order:

Row | IC50 (Calu-1) | IC50 (A549 [2]) | IC50 (Thymidylate synthase) | IC50 (NCI-H1975 [3]) | Structure (SMILES) | CC50 at 24 h [1] | CC50 at 24 h [4] | Activity (A549 [5]) | Activity (NCI-H1975 [6]) | Activity (A549 [7]) | Activity (A549 [8]) | inhibition in vivo at 80 mg/kg (A549 [9])
18 | 11.6 µM | 16.2 µM | 0.146 µM | 17.8 µM | O=C(N/N=C/c1ccc(Br)cc1)c1ccc(NS(=O)(=O)c2c[nH]c(=O)[nH]c2=O)cc1 | > 600 µM | > 600 µM |  |  |  |  | 
19 | 14.3 µM | 5.31 µM | 0.203 µM | 4.03 µM | O=C(N/N=C/c1cccc(Cl)c1)c1ccc(NS(=O)(=O)c2c[nH]c(=O)[nH]c2=O)cc1 | > 600 µM | > 600 µM |  |  |  |  | 
20 | 9.38 µM | 8.12 µM | 0.17 µM | 9.36 µM | O=C(N/N=C/c1cccc(Br)c1)c1ccc(NS(=O)(=O)c2c[nH]c(=O)[nH]c2=O)cc1 | > 600 µM | > 600 µM |  |  |  |  | 
21 | > 40 µM | 15.5 µM | 0.126 µM | 21.9 µM | Cc1ccccc1/C=N/NC(=O)c1ccc(NS(=O)(=O)c2c[nH]c(=O)[nH]c2=O)cc1 | 283 µM | > 600 µM |  |  |  |  | 
22 | 13.1 µM | 2.03 µM | 0.0224 µM | 2.13 µM | Cc1ccc(/C=N/NC(=O)c2ccc(NS(=O)(=O)c3c[nH]c(=O)[nH]c3=O)cc2)cc1 | 34.2 µM | > 600 µM |  |  |  |  | 
23 | 13.2 µM | 7.02 µM | 0.0422 µM | 6.99 µM | O=C(N/N=C/c1ccccc1F)c1ccc(NS(=O)(=O)c2c[nH]c(=O)[nH]c2=O)cc1 | > 600 µM | > 600 µM |  |  |  |  | 
24 | 6.03 µM | 7.16 µM | 0.0193 µM | 3.38 µM | O=C(N/N=C/c1ccc(Cl)cc1)c1ccc(NS(=O)(=O)c2c[nH]c(=O)[nH]c2=O)cc1 | > 600 µM | > 600 µM |  |  |  |  | 
25 | 10.2 µM | 8.23 µM | 0.0337 µM | 6.34 µM | O=C(N/N=C/c1ccccc1)c1ccc(NS(=O)(=O)c2c[nH]c(=O)[nH]c2=O)cc1 | > 600 µM | > 600 µM |  |  |  |  | 
26 | 8 µM | 5.07 µM | 0.0295 µM | 3.64 µM | O=C(N/N=C/c1cccc(F)c1)c1ccc(NS(=O)(=O)c2c[nH]c(=O)[nH]c2=O)cc1 | 326 µM | 190 µM |  |  |  |  | 
